Results on eleven compounds are retold here after PubChem BioAssay (NCI).

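1) Cells in 96-well plates. 2) Compound, 48 h, 5 concentrations. 3) Linear interpolation between surrounding doses. 4) Unreached endpoint = highest concentration. TGI denotes the concentration required for complete inhibition of growth.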

Some test systems named below: A549 NSCLC; COLO 205 colon; DU-145 prostate; HCC-2998 colon; HOP-92 NSCLC; IGROV1 ovarian; KM12 colon; M14 melanoma; NCI-H23 lung; UO-31 renal.
What all share (assay): DTP human tumour cell line panel, 48 h

By TGI is commonly meant the concentration at which net growth stops. A high value points to less potent growth arrest. With `Oc1cccc2c(Br)ccnc12`, the TGI with A549 NSCLC is above 100 µM; in the experiment with COLO 205 colon, 27.3 µM; with DU-145 prostate, 39.5 µM; in the experiment with HCC-2998 colon, 31.7 µM; in the experiment on HOP-92 NSCLC, 23 µM; with IGROV1 ovarian, 9.41 µM. Also, the TGI with KM12 colon is 21.1 µM; with M14 melanoma it was 16.3 µM; in the experiment with NCI-H23 lung, 17.1 µM; with UO-31 renal it was 21.6 µM.

With `O=C1C=CC(=O)c2c(O)c(N3CCOCC3)c(Cl)c(O)c21`, the TGI in the experiment on A549 NSCLC was determined as 3.85 µM; with COLO 205 colon, 0.395 µM; in the experiment on DU-145 prostate, 2.93 µM; in the experiment on HCC-2998 colon, 3.16 µM; with HOP-92 NSCLC, 0.675 µM; in the experiment on IGROV1 ovarian, 1.21 µM. Moreover, the total growth inhibition concentration (TGI) is 3.32 µM with KM12 colon, 0.358 µM in the experiment on M14 melanoma, 0.589 µM in the experiment on NCI-H23 lung and 0.892 µM in the experiment on UO-31 renal.

Turning to `COc1cccc(NC(=O)CC(=O)n2nc(-c3ccccc3)c(N=Nc3ccc(Cl)cc3)c2-c2ccccc2)c1`, the TGI with A549 NSCLC is above 85.7 µM; with COLO 205 colon, 61.6 µM; with DU-145 prostate, above 100 µM; in the experiment with HCC-2998 colon, 64.5 µM; in the experiment with HOP-92 NSCLC, above 75 µM; with IGROV1 ovarian, above 96.4 µM. The TGI is above 81.9 µM with KM12 colon, 42.3 µM in the experiment on M14 melanoma, above 78.1 µM with NCI-H23 lung and 30.8 µM with UO-31 renal.

`CC(C)[C@H](C)/C=C/[C@@H](C)C1CC[C@H]2[C@@]34C=C[C@]5(C[C@@H](O)CC[C@]5(C)[C@H]3CC[C@]12C)OO4` (stereo not given in full): the TGI in the experiment with A549 NSCLC is above 100 µM; in the experiment on COLO 205 colon it was above 100 µM; in the experiment on DU-145 prostate, 56 µM; with HCC-2998 colon, 50.9 µM; in the experiment with HOP-92 NSCLC it was 92.3 µM; in the experiment with IGROV1 ovarian it was above 100 µM. In addition, the TGI with KM12 colon was above 100 µM; with M14 melanoma it was above 100 µM; in the experiment on NCI-H23 lung, 92.5 µM; with UO-31 renal, above 100 µM.

With `CCOC(=O)c1cc2c3c(c(C(C)=O)c(OC)c2[nH]1)N(C(=O)CC)CC3`, the total growth inhibition concentration (TGI) amounted to 38.7 µM in the experiment on A549 NSCLC; 41.8 µM in the experiment with COLO 205 colon; 29.6 µM with DU-145 prostate; 76.5 µM with HCC-2998 colon; 28.9 µM in the experiment on HOP-92 NSCLC; 30 µM with IGROV1 ovarian. The TGI in the experiment on KM12 colon is 26.3 µM; in the experiment on M14 melanoma, 50.5 µM; with NCI-H23 lung it was 25 µM; with UO-31 renal it was 27 µM.

For the compound `COc1cc(S(=O)(=O)Nc2ccc(-c3csc(N4C(=O)C(Cl)C4c4ccccc4O)n3)cc2)ccc1Cl` (stereo not given), the TGI with A549 NSCLC was above 100 µM; with COLO 205 colon, 90.1 µM; in the experiment with DU-145 prostate it was 66.6 µM; in the experiment with HCC-2998 colon it was 38.5 µM; with HOP-92 NSCLC, 91.9 µM; in the experiment with IGROV1 ovarian, 56.3 µM. For the same compound, the TGI in the experiment with KM12 colon is above 100 µM; with M14 melanoma it was above 100 µM; in the experiment on NCI-H23 lung, 80.5 µM; with UO-31 renal, above 100 µM.

Consider `NC1CCCCC1NCCNC1CCCCC1N` (stereo not given), for which the TGI in the experiment on A549 NSCLC is 87.6 µM; in the experiment on COLO 205 colon, 30.8 µM; with DU-145 prostate, above 100 µM; in the experiment on HCC-2998 colon, 81.7 µM; in the experiment on HOP-92 NSCLC it was above 100 µM; in the experiment on IGROV1 ovarian, above 100 µM. For the same compound, the TGI is above 100 µM with KM12 colon, above 100 µM in the experiment on M14 melanoma, 96.8 µM with NCI-H23 lung and above 100 µM in the experiment on UO-31 renal.

Consider `O=C1N2CCC[C@H]2CS1(=O)=O`, for which the TGI came to 47.3 µM with A549 NSCLC; 28.9 µM in the experiment with COLO 205 colon; 35.8 µM in the experiment with DU-145 prostate; 32.2 µM in the experiment on HCC-2998 colon; 25.7 µM with HOP-92 NSCLC; 34.7 µM in the experiment with IGROV1 ovarian. The TGI stood at 30.8 µM in the experiment on KM12 colon, 31.6 µM with M14 melanoma, 34 µM in the experiment on NCI-H23 lung and 28.5 µM with UO-31 renal.

For `Cc1nc(C)c(N2CCN(CN)CC2)c(=O)[nH]1`, the TGI in the experiment with A549 NSCLC, with COLO 205 colon, with DU-145 prostate, in the experiment on HCC-2998 colon, with HOP-92 NSCLC and with IGROV1 ovarian was above 100 µM throughout. In addition, the TGI with KM12 colon, with M14 melanoma, in the experiment on NCI-H23 lung and in the experiment on UO-31 renal was above 100 µM in each case.

For `Cc1c(OCc2cccc3ccccc23)ccc2c(=O)cc(SCCN3CCOCC3)oc12`, the TGI in the experiment with A549 NSCLC, with COLO 205 colon, in the experiment on DU-145 prostate, with HCC-2998 colon, in the experiment with HOP-92 NSCLC and in the experiment with IGROV1 ovarian was above 100 µM in each case. The TGI in the experiment on KM12 colon, in the experiment with M14 melanoma, in the experiment on NCI-H23 lung and with UO-31 renal was above 100 µM throughout.

Consider `c1ccc2c(Nc3ncco3)cccc2c1`, for which the TGI in the experiment with A549 NSCLC, in the experiment with COLO 205 colon, with DU-145 prostate, in the experiment on HCC-2998 colon, in the experiment with HOP-92 NSCLC and in the experiment on IGROV1 ovarian was above 10 µM in each case. Besides, the TGI with KM12 colon, with M14 melanoma, with NCI-H23 lung and in the experiment with UO-31 renal was above 10 µM each time.
